ChEMBL document CHEMBL3603744, “Structure activity relationship of C-2 ether substituted 1,5-naphthyridine analogs of oxabicyclooctane-linked novel bacterial topoisomerase inhibitors as broad-spectrum antibacterial agents (Part-5)” (Bioorg Med Chem Lett, 2015)
In brackets after ≈: the same amount, converted by molar mass. Activity calls are given as the source filed them. The rule behind the calls is not given here.

Experiments:
Escherichia coli = assay: Antimicrobial activity against Escherichia coli ATCC 25922 by micro broth dilution or agar based method; format: functional
Streptococcus pneumoniae = assay: Antimicrobial activity against Streptococcus pneumoniae IID553 by micro broth dilution or agar based method; format: functional
Acinetobacter baumannii = assay: Antimicrobial activity against Acinetobacter baumannii IID876 by micro broth dilution or agar based method; format: functional
Staphylococcus aureus [1] = assay: Antimicrobial activity against methicillin-resistant Staphylococcus aureus OIT971 by micro broth dilution or agar based method; format: functional, organism-based
Staphylococcus aureus [2] = assay: Antimicrobial activity against Staphylococcus aureus Smith by micro broth dilution or agar based method; format: functional
Staphylococcus aureus [3] = assay: Resistance index, ratio of MIC for quinolone-resistant Staphylococcus aureus MS5935 to MIC for quinolone-[…]; format: functional
Pseudomonas aeruginosa = assay: Antimicrobial activity against Pseudomonas aeruginosa PAO1 by micro broth dilution or agar based method; format: functional
Enterococcus faecium = assay: Antimicrobial activity against vancomycin-resistant Enterococcus faecium VanA by micro broth dilution or agar based method; format: functional

Compound | MIC (Escherichia coli) | MIC (Streptococcus pneumoniae) | MIC (Acinetobacter baumannii) | growth inhibition (GI) (Staphylococcus aureus [1]) | MIC (Staphylococcus aureus [2]) | Ratio (Staphylococcus aureus [3]) | MIC (Pseudomonas aeruginosa) | MIC (Enterococcus faecium)
O=C1COc2ccc(CNC34CCC(CCc5c(F)cnc6ccc(OCCOCCO)nc56)(CC3)OC4)nc2N1 | 32 µg/mL (≈ 56.4 µM) | 4 µg/mL (≈ 7.05 µM) | 16 µg/mL (≈ 28.2 µM) | Active | 0.25 µg/mL (≈ 0.44 µM) | <4 | 32 µg/mL (≈ 56.4 µM) | 16 µg/mL (≈ 28.2 µM)
O=C1COc2ccc(CNC34CCC([C@@H](O)Cc5c(F)cnc6ccc(OCCO)nc56)(CC3)OC4)nc2N1 | 8 µg/mL (≈ 14.8 µM) | 1 µg/mL (≈ 1.85 µM) | 2 µg/mL (≈ 3.71 µM) | Active | 0.125 µg/mL (≈ 0.232 µM) | – | 16 µg/mL (≈ 29.7 µM) | 4 µg/mL (≈ 7.41 µM)
NCC1(COc2ccc3ncc(F)c(CCC45CCC(NCc6ccc7c(n6)NC(=O)CO7)(CC4)CO5)c3n2)CC1 | 8 µg/mL (≈ 14.2 µM) | 0.5 µg/mL (≈ 0.889 µM) | 4 µg/mL (≈ 7.11 µM) | Active | 1 µg/mL (≈ 1.78 µM) | – | 32 µg/mL (≈ 56.9 µM) | 16 µg/mL (≈ 28.4 µM)
NCCCCOc1ccc2ncc(F)c(CCC34CCC(NCc5ccc6c(n5)NC(=O)CO6)(CC3)CO4)c2n1 | 4 µg/mL (≈ 7.26 µM) | 1 µg/mL (≈ 1.82 µM) | 8 µg/mL (≈ 14.5 µM) | Active | 0.5 µg/mL (≈ 0.908 µM) | – | 16 µg/mL (≈ 29.1 µM) | 8 µg/mL (≈ 14.5 µM)
O=C1COc2ccc(CNC34CCC(CCc5c(F)cnc6ccc(OCCc7cc(=O)c(O)c[nH]7)nc56)(CC3)OC4)nc2N1 | 32 µg/mL (≈ 51.9 µM) | 8 µg/mL (≈ 13 µM) | 32 µg/mL (≈ 51.9 µM) | Active | 16 µg/mL (≈ 25.9 µM) | – | 32 µg/mL (≈ 51.9 µM) | 32 µg/mL (≈ 51.9 µM)
CC(C)CCOc1ccc2ncc(F)c(CCC34CCC(NCc5ccc6c(n5)NC(=O)CO6)(CC3)CO4)c2n1 | 16 µg/mL (≈ 29.1 µM) | 1 µg/mL (≈ 1.82 µM) | 16 µg/mL (≈ 29.1 µM) | Active | 0.125 µg/mL (≈ 0.227 µM) | – | 16 µg/mL (≈ 29.1 µM) | 8 µg/mL (≈ 14.6 µM)
CCOc1ccc2ncc(F)c(CCC34CCC(NCc5ccc6c(n5)NC(=O)CO6)(CC3)CO4)c2n1 | 4 µg/mL (≈ 7.88 µM) | 0.5 µg/mL (≈ 0.985 µM) | 2 µg/mL (≈ 3.94 µM) | Active | 0.031 µg/mL (≈ 0.0611 µM) | – | 8 µg/mL (≈ 15.8 µM) | 2 µg/mL (≈ 3.94 µM)
NC(=O)C(F)(F)CCOc1ccc2ncc(F)c(CCC34CCC(NCc5ccc6c(n5)NC(=O)CO6)(CC3)CO4)c2n1 | 8 µg/mL (≈ 13.3 µM) | 1 µg/mL (≈ 1.67 µM) | 4 µg/mL (≈ 6.66 µM) | Active | 0.063 µg/mL (≈ 0.105 µM) | – | 32 µg/mL (≈ 53.3 µM) | 8 µg/mL (≈ 13.3 µM)
O=C1COc2ccc(CNC34CCC(CCc5c(F)cnc6ccc(OC(F)F)nc56)(CC3)OC4)nc2N1 | 2 µg/mL (≈ 3.78 µM) | 0.125 µg/mL (≈ 0.236 µM) | 0.5 µg/mL (≈ 0.944 µM) | Active | 0.016 µg/mL (≈ 0.0302 µM) | – | 4 µg/mL (≈ 7.55 µM) | 1 µg/mL (≈ 1.89 µM)
NCCOc1ccc2ncc(F)c(CCC34CCC(NCc5ccc6c(n5)NC(=O)CO6)(CC3)CO4)c2n1 | 1 µg/mL (≈ 1.91 µM) | 0.5 µg/mL (≈ 0.957 µM) | 1 µg/mL (≈ 1.91 µM) | Active | 0.25 µg/mL (≈ 0.478 µM) | – | 4 µg/mL (≈ 7.65 µM) | 4 µg/mL (≈ 7.65 µM)
O=C1COc2ccc(CNC34CCC(CCc5c(F)cnc6ccc(OCC(O)CO)nc56)(CC3)OC4)nc2N1 (stereo unspecified) | 16 µg/mL (≈ 28.9 µM) | 1 µg/mL (≈ 1.81 µM) | 4 µg/mL (≈ 7.23 µM) | Active | 0.125 µg/mL (≈ 0.226 µM) | – | 32 µg/mL (≈ 57.8 µM) | 4 µg/mL (≈ 7.23 µM)
N[C@@H]1CO[C@@H]1COc1ccc2ncc(F)c(CCC34CCC(NCc5ccc6c(n5)NC(=O)CO6)(CC3)CO4)c2n1 | 8 µg/mL (≈ 14.2 µM) | 1 µg/mL (≈ 1.77 µM) | 1 µg/mL (≈ 1.77 µM) | Active | 0.125 µg/mL (≈ 0.221 µM) | – | 32 µg/mL (≈ 56.7 µM) | 8 µg/mL (≈ 14.2 µM)
O=C(O)COc1ccc2ncc(F)c(CCC34CCC(NCc5ccc6c(n5)NC(=O)CO6)(CC3)CO4)c2n1 | 16 µg/mL (≈ 29.8 µM) | 16 µg/mL (≈ 29.8 µM) | 16 µg/mL (≈ 29.8 µM) | Active | 16 µg/mL (≈ 29.8 µM) | – | 16 µg/mL (≈ 29.8 µM) | 16 µg/mL (≈ 29.8 µM)
N[C@H]1CO[C@@H]1COc1ccc2ncc(F)c(CCC34CCC(NCc5ccc6c(n5)NC(=O)CO6)(CC3)CO4)c2n1 | 4 µg/mL (≈ 7.08 µM) | 0.5 µg/mL (≈ 0.886 µM) | 0.5 µg/mL (≈ 0.886 µM) | Active | 0.125 µg/mL (≈ 0.221 µM) | – | 16 µg/mL (≈ 28.3 µM) | 4 µg/mL (≈ 7.08 µM)
O=C1COc2ccc(CNC34CCC(CCc5c(F)cnc6ccc(OCC7(O)COC7)nc56)(CC3)OC4)nc2N1 | 16 µg/mL (≈ 28.3 µM) | 0.5 µg/mL (≈ 0.884 µM) | 4 µg/mL (≈ 7.07 µM) | Active | 0.125 µg/mL (≈ 0.221 µM) | – | 32 µg/mL (≈ 56.6 µM) | 4 µg/mL (≈ 7.07 µM)
O=C1COc2ccc(CNC34CCC(CCc5c(F)cnc6ccc(OCC7(CO)CC7)nc56)(CC3)OC4)nc2N1 | 16 µg/mL (≈ 28.4 µM) | 1 µg/mL (≈ 1.77 µM) | 4 µg/mL (≈ 7.1 µM) | Active | 0.063 µg/mL (≈ 0.112 µM) | – | 32 µg/mL (≈ 56.8 µM) | 4 µg/mL (≈ 7.1 µM)
N#CCCCOc1ccc2ncc(F)c(CCC34CCC(NCc5ccc6c(n5)NC(=O)CO6)(CC3)CO4)c2n1 | 4 µg/mL (≈ 7.32 µM) | 0.5 µg/mL (≈ 0.915 µM) | 2 µg/mL (≈ 3.66 µM) | Active | 0.031 µg/mL (≈ 0.0567 µM) | – | 16 µg/mL (≈ 29.3 µM) | 2 µg/mL (≈ 3.66 µM)
N[C@H]1C(=O)N[C@@H]1COc1ccc2ncc(F)c(CCC34CCC(NCc5ccc6c(n5)NC(=O)CO6)(CC3)CO4)c2n1 | 16 µg/mL (≈ 27.7 µM) | 0.5 µg/mL (≈ 0.866 µM) | 32 µg/mL (≈ 55.4 µM) | Active | 0.5 µg/mL (≈ 0.866 µM) | – | 32 µg/mL (≈ 55.4 µM) | 16 µg/mL (≈ 27.7 µM)
O=C1COc2ccc(CNC34CCC(CCc5c(F)cnc6ccc(OC[C@H]7C[C@@H](O)[C@@H](O)C7)nc56)(CC3)OC4)nc2N1 | 8 µg/mL (≈ 13.5 µM) | 0.5 µg/mL (≈ 0.842 µM) | 8 µg/mL (≈ 13.5 µM) | Active | 0.063 µg/mL (≈ 0.106 µM) | – | 8 µg/mL (≈ 13.5 µM) | 4 µg/mL (≈ 6.74 µM)
O=C1COc2ccc(CNC34CCC(CCc5c(F)cnc6ccc(OC[C@H]7C[C@H]7C(=O)O)nc56)(CC3)OC4)nc2N1 (relative stereo) | 32 µg/mL (≈ 55.4 µM) | 0.125 µg/mL (≈ 0.216 µM) | 32 µg/mL (≈ 55.4 µM) | Active | 0.125 µg/mL (≈ 0.216 µM) | – | 32 µg/mL (≈ 55.4 µM) | 2 µg/mL (≈ 3.46 µM)
O=C(O)CCCCOc1ccc2ncc(F)c(CCC34CCC(NCc5ccc6c(n5)NC(=O)CO6)(CC3)CO4)c2n1 | 16 µg/mL (≈ 27.6 µM) | 0.25 µg/mL (≈ 0.431 µM) | 16 µg/mL (≈ 27.6 µM) | Active | 0.063 µg/mL (≈ 0.109 µM) | – | 16 µg/mL (≈ 27.6 µM) | 2 µg/mL (≈ 3.45 µM)
O=C1COc2ccc(CNC34CCC(CCc5c(F)cnc6ccc(OC[C@@H]7C[C@@H](O)[C@@H](O)C7)nc56)(CC3)OC4)nc2N1 | 16 µg/mL (≈ 27 µM) | 0.5 µg/mL (≈ 0.842 µM) | 8 µg/mL (≈ 13.5 µM) | Active | 0.125 µg/mL (≈ 0.211 µM) | – | 32 µg/mL (≈ 53.9 µM) | 4 µg/mL (≈ 6.74 µM)
N#CC1(COc2ccc3ncc(F)c(CCC45CCC(NCc6ccc7c(n6)NC(=O)CO7)(CC4)CO5)c3n2)CC1 | 16 µg/mL (≈ 28.6 µM) | 1 µg/mL (≈ 1.79 µM) | 2 µg/mL (≈ 3.58 µM) | Active | 0.063 µg/mL (≈ 0.113 µM) | – | 16 µg/mL (≈ 28.6 µM) | 4 µg/mL (≈ 7.16 µM)
NC1COCC1Oc1ccc2ncc(F)c(CCC34CCC(NCc5ccc6c(n5)NC(=O)CO6)(CC3)CO4)c2n1 (stereo unspecified) | 4 µg/mL (≈ 7.08 µM) | 1 µg/mL (≈ 1.77 µM) | 1 µg/mL (≈ 1.77 µM) | Active | 0.125 µg/mL (≈ 0.221 µM) | – | 16 µg/mL (≈ 28.3 µM) | 8 µg/mL (≈ 14.2 µM)
O=C(O)CCCOc1ccc2ncc(F)c(CCC34CCC(NCc5ccc6c(n5)NC(=O)CO6)(CC3)CO4)c2n1 | 16 µg/mL (≈ 28.3 µM) | 0.5 µg/mL (≈ 0.884 µM) | 16 µg/mL (≈ 28.3 µM) | Active | 0.25 µg/mL (≈ 0.442 µM) | – | 16 µg/mL (≈ 28.3 µM) | 4 µg/mL (≈ 7.07 µM)
